# Patent US8932627B2, “Liposomal compositions of glucocorticoid and glucocorticoid derivatives” (Yissum Research Development Company of the Hebrew …, priority 2004, dated 2015)
# Key:
# [1] = State of aggregation (turbidity, light scattering at 90°) of MPS as function of pH; type: physicochemical
# Procedure: Aggregation of MPS was determined from the change in turbidity measured as intensity of light scattered at 90° to excitation beam using a spectrofluormeter under conditions that MPS lack absorbance (excitation and emission at the same wavelength Ex=600 nm Em=600 nm). There is a large increase in the light scattered by MPS solution/dispersion due to formation of aggregates.
# The intensity of scattered light (at 90° to the excitation), also defined as turbidity is proportional to concentration and to the size of the aggregates. [Zuidam, N. J. and Barenholz, Y., Biochim. Biophys. Acta 1368:115-128 (1998)]. The state of aggregation of MPS was tested in the following manner: To quartz cuvette MPS (2 ml) at concentration of ˜6.5 mg/ml MPS was added. The solution was tittered with HCl (1.756M) and light scattering using excitation and emission at (both at 600 nm with attenuation of 1%) and pH of the solution was monitored.
# [2] = 26° C.; MPS 0.785-30 mM
# Procedure: Surface tension was measured using μtrouge S (Kibron Inc., Helsinki Finland). A solution containing GC derivative (300 μL) was placed in the well after calibration and zeroing of the sensor using pure water and air. The measurement was performed at 26° C.
# [3] = Precipitation of MPS by calcium ion (Ca-acetate solution); type: physicochemical; conditions: pH 4.5; 600 mOsm Ca-acetate, 63° C., 5 mg/ml MPS, 40 minutes
# Procedure: To 600 mOsm Ca-acetate solution at 63° C. and at different pH points MPS was added at final concentration of 5 mg/ml, then mixed solution was incubated for 40 minutes after which the solution was centrifuged and the supernatant was analyzed using HPLC.
# [4] = tested on: Experimental Autoimmune Encephalomyelitis (EAE); assay: Treatment of acute EAE (PLP 139-151 induced) with SSL-MPS, single injection; type: in vivo, SJL female mice; conditions: 50 mg/kg BW, 1 injection day 14, follow up 3 weeks
# [5] = tested on: Experimental Autoimmune Encephalomyelitis (EAE); assay: Treatment of severe disease burden in acute EAE (PLP induced); type: in vivo, SJL female mice
# Procedure: In order to boost the immune system Pertussis Toxin (PT) 150 ng were injected intraperitoneally (i.p.) to the mice on the first day and 48 hours later.
# Each mouse was examined daily for clinical signs of EAE using the following Table 4:
# For mice showing a severe disease burden (determined by summing the scores of each of the 10 mice in the group and calculating the mean score per day, according to the following equation: Σtotal score of each mouse per day/number of mice in the group) a different treatment was applied. Specifically, after immunization as described above, mice were treated with 50 mg/kg BW SSL-MPS (days 10, 14, 18) or with free-MPS 50 mg/kg BW (days 10, 14, 18) or dextrose 5% (days 10, 14, 18). For each group, the incidence, MMS=mean maximal score; MDD=mean disease duration (days); MDO=mean day of onset and mean score were determined Table 7. Further, for each group the mean clinical scores at each time point was determined (FIG. 6B) as well as the survival curve (FIG. 6A).
# [6] = tested on: J6456 lymphoma cells (mouse T-cell lymphoma); assay: Survival of mice injected i.p. with J6456 lymphoma cells; type: in vivo, BALB/C mice; conditions: free-MPS days 5, 9, 12, SSL-MPS days 5, 9, 12, 16
# Procedure: At day 1 of the experiment BALB/C mice were injected i.p. with 1 million J6456 lymphoma cells (mouse T-cell lymphoma) then mice were divided into groups and treated by i.v. injections with free-MPS or SSL-MPS according to the following treatment schedule (Table 9).
# [7] = tested on: BCL-1 (mouse B cell lymphoid leukemia); assay: Survival of BCL-1 tumor bearing mice; type: in vivo, BALB/C mice
# Procedure: In a further assay, survival of BCL-1 (mouse B cell lymphoid leukemia) tumor bearing mice was determined. […] Then, the mice were divided into groups and treated at days 5, 9, 12, 16, by i.v. injections, with the following treatment formulations: […]
# Group I—5 mg/kg BW free-MPS;
# Group II—25 mg/kg BW free-MPS;
# Group III—5 mg/kg BW SSL-MPS;
# Group IV—50 mg/kg BW SSL-MPS.
# BCL-1 lymphoma cells = assay: Sensitivity of BCL-1 cell line to MPS; type: cell-based, mouse
# [8] = ex vivo stability, after 24 hours, passively loaded liposomes; cited from earlier work
compound,measurement,setting,value
"C[C@H]1C[C@@H]2[C@H]([C@@H](O)C[C@@]3(C)[C@H]2CC[C@]3(O)C(=O)COC(=O)CCC(=O)[O-])[C@@]2(C)C=CC(=O)C=C12.[Na+] [MPS, methylprednisolone sodium hemisuccinate]",state of aggregation (turbidity),"[1]; acidic pH, FIG. 1A",it aggregates
same,state of aggregation (turbidity),"[1]; pH 7.2, FIG. 1A",non-aggregated water soluble
same,surface activity (surface tension),[2],surface active at all concentrations used
same,% MPS precipitated,[3],97%
same,Incidence,[4],7/9
same,MDD (mean disease duration),[4],10.9 ± 2.7 days
same,MDO (mean day of onset),[4],16.7 ± 1.83
same,MMS (mean maximal score),[4],2.35 ± 0.39
same,Mean Score,[4],0.861 ± 0.105
same,#dead,"[5]; 50 mg/kg BW days 10, 14, 18",3
same,Incidence,"[5]; 50 mg/kg BW days 10, 14, 18",9/9
same,MDD (mean disease duration),"[5]; 50 mg/kg BW days 10, 14, 18",10.11 ± 1.92 days
same,MDO (mean day of onset),"[5]; 50 mg/kg BW days 10, 14, 18",12.67 ± 0.65
same,MMS (mean maximal score),"[5]; 50 mg/kg BW days 10, 14, 18",4.44 ± 0.50
same,Mean Score,"[5]; 50 mg/kg BW days 10, 14, 18",2.62 ± 0.208
same,survival / mortality,"[5]; 50 mg/kg BW days 10, 14, 18, FIG. 6A",there was mortality
same,mean clinical score at day 19,"[5]; 50 mg/kg BW days 10, 14, 18, FIG. 6B",~3
same,Median survival,[6]; 15 mg/kg BW i.v.,16
same,Median survival,[6]; 50 mg/kg BW i.v.,16
same,Survival median,"[7]; 5 mg/kg BW i.v. days 5, 9, 12, 16",19
same,Survival median,"[7]; 25 mg/kg BW i.v. days 5, 9, 12, 16",19
same,sensitivity of the cell line,BCL-1 lymphoma cells; BCL-1,highly sensitive
same,IC50,BCL-1 lymphoma cells; BCL-1 lymphoma cells (B cell line),in the nmolar range
triamcinolone acetonide phosphate,acidic corticosteroid retained by the liposome,[8],more than 75%
